≈ marks a conversion by molar mass, not a printed value.
Columns and labels:
fish keratocytes = tested on: fish keratocytes; design: method as in Nolen et al., 2009; settings: ref Nolen et al., 2009; cited from earlier work
sea urchin embryos [1] = tested on: sea urchin embryos; design: method as in Sepúlveda-ramírez et al., 2018; settings: 100 μM; ref Sepúlveda-ramírez et al., 2018; cited from earlier work
Arp2/3 [2] = settings: introduction statement, no reference given; read-out: IC50 of inhibition of Arp2/3 activation; cited from earlier work
Arp2/3 [3] = target: T1, Arp2/3 (Bos taurus, UniProt A7MB62+P61157); assay: Pyrene-actin polymerization assay; type: biochemical, bovine; settings: 20 nM Arp2/3, 250 nM N-WASP VCA; for IC50: 1.5 μM actin (10% pyrenyl-labeled), read-out: IC50 of Arp2/3-mediated actin polymerization; for Arp2/3 inhibition reached at saturation: 1.5 μM actin
T1 construct: purchased Cytoskeleton, Inc
Protocol: Actin was purified from rabbit muscle and was pyrenyl-labeled ([Carlier et al., 1984]; [Malm, 1984]). Arp2/3 was from Cytoskeleton, Inc. VCA domain of N-WASP was purified as previously described ([Clainche et al., 2003]). Pyrene-actin polymerization assays were performed as previously ([Romero et al., 2007]). Briefly, CaATP-actin was converted into MgATP-actin in (5 mM Tris, 0.2 mM ATP, 0.1 mM CaCl2, 1 mM DTT, 1 mM MgCl2, and 0.2 mM EGTA, pH 7.6) and kept on ice for no more than 1 h. Actin polymerization was monitored in (5 mM Tris, 50 mM KCl, 0.2 mM ATP, 0.1 mM CaCl2, 1 mM DTT, 1 mM MgCl2, 0.2 mM EGTA, pH 7.6) in the presence of 2% DMSO alone or 2% DMSO containing the appropriated compound concentration. The increase in fluorescence of 10% pyrenyl-labeled actin was monitored using a Safas spectrofluorimeter (λexc = 366 nm, λem = 407 nm). The maximum rate of actin polymerization was derived from the maximum slope of the polymerization curve multiplied by [total polymer]/(RFUmax—RFUmin) [total polymer] is the total actin minus the critical concentration (0.1 μM) and RFU, Relative Fluorescence Unit. The maximum elongation rates of actin polymerization were plotted as a function of the concentration of the different compounds. For CK-666, 59, 69 and 71, curves were fitted with the following equation to determine the IC50. Mrate= Rmax−Rmax−Rmin/1+IC50/(Compound Conc.) where Mrate is the measured maximum rate of actin polymerization at a given compound concentration, Rmax is the maximum rate of actin polymerization with no compound, and Rmin is the maximum rate of actin polymerization at saturating concentration of compound.
The curve of compound 15 was fitted with a linear decay. The IC50 was determined at half inhibition of actin polymerization.

B16-F1 cells [4] = assay: Wound healing (cell migration) of B16-F1 cells; type: cell-based, mouse
Protocol: For the wound healing, B16-F1 cells were seeded onto 8-well Ibidi dishes coated with laminin, and grown to confluence. Wounds in the cell monolayer were obtained by scratching the monolayer with a pipet tip. Detached cells were immediately washed away and new medium containing the various compounds was added. Cells were then used for videomicroscopy.
Videomicroscopy was performed on an inverted Axio Observer microscope (Zeiss) equipped with a Pecon Zeiss incubator XL multi S1 RED LS (Heating Unit XL S, Temp module, CO2 module, Heating Insert PS and CO2 cover), Definite focus module and a Hamamatsu camera C10600 Orca-R2. Phase contrast images were taken every 30 min for 24 h using the 10X/0.25 Plan-Apochromat air objective. For immunofluorescence, slides were observed and imaged with the 63X/1.4 Plan-Apochromat oil objective. Fluorophores were excited with the HBO 100 W lamp (Osram) installed in the HXP 120 Metal halide fluorescence light source (Zeiss).
(§1) Image analysis was performed in ImageJ or FIJI software. To measure wound healing, boundaries of the wound were drawn manually at different time points, then wound size was measured.

B16-F1 cells [5] = assay: Lamellipodium formation in B16-F1 cells (cortactin immunofluorescence); type: cell-based, mouse
Protocol: Lyophilized compounds were resuspended with fresh DMSO from sealed vials (cell biology grade). Compounds, stored at +4°C, were used within a week. B16-F1 cells were seeded onto glass coverslips coated for 1 h with 25 μg/ml laminin (Sigma) in (50 mM Tris, 150 mM NaCl, pH 7.4). […] Cell were then processed for immunofluorescence.
Cells were fixed in 3.2% PFA on PBS, then quenched with 50 mM NH4Cl and permeabilised with 0.5% Triton X-100. After blocking in 2% BSA cells were incubated with antibodies (1–5 μg/ml for the primary, 5 μg/ml for the secondary). Total actin in cells was visualized by phalloidin staining. Nuclei were stained with 0.3 μg/ml DAPI (Roche). Coverslips were mounted in Dako Fluorescence Mounting Medium (Agilent). For immunofluorescence, ARPC2 rabbit polyclonal antibody (Millipore, 07–227), Cortactin mouse monoclonal 4F11 (Millipore, 05–180) were used. Secondary goat anti-mouse and anti-rabbit antibodies conjugated with Alexa Fluor 555 and 647 respectively were from Life Technologies. Phalloidin conjugated with Alexa Fluor 488 was from Tebu-bio.
as §1

sea urchin embryos [6] = assay: Sea urchin embryo development assay; type: in vivo, Paracentrotus lividus
Protocol: The procedure was described in detail in [Semenova et al., 2018]. Briefly, adult sea urchins, Paracentrotus lividus L (Echinidae), were collected from the Mediterranean Sea on the Cyprus coast and kept in an aerated seawater tank. Gametes were obtained by intracoelomic injection of 0.5 M KCl. Eggs were washed with filtered seawater and fertilized by adding drops of diluted sperm. Embryos were cultured at room temperature under gentle agitation with a motor-driven plastic paddle (60 rpm) in filtered seawater. […] For treatment with test compounds, 5 ml aliquots of embryo suspension were transferred to six-well plates and incubated at a concentration of 1,000–2,000 embryos/ml. For images, sedimented embryos were concentrated in the center of the well by gentle rotation of the culture plate, and 200 μl aliquots containing several hundred embryos were used to take pictures (up to 20 images from different fields). Embryos selected for Figure 4 were representative of the population.
(§2) Stock solutions of compounds were prepared in DMSO at 50–250 mM concentration followed by a 10-fold dilution with 96% EtOH. This procedure enhanced the solubility of the test compounds in the salty seawater. Maximal tolerated concentrations of DMSO and EtOH in the assay were determined to be 0.05 and 1%, respectively. Higher concentrations of either DMSO (>0.1%) or EtOH (>1%) caused nonspecific alterations and retardation of the sea urchin embryo development independent of the treatment stage. Maximum solubility of compounds 15, 59, 69, and 71 was about 5–20 mM in seawater, since visible crystals formed at higher concentrations.
The effects were assessed after exposure of fertilized eggs (8–15 min post fertilization, 45–55 min before the first mitotic cycle completion) to 2-fold decreasing concentrations of the compound. Embryonic development was monitored until the beginning of active feeding at four-arm pluteus stage (33–36 h postfertilization). Developmental abnormalities were estimated quantitatively as minimal effective concentration (MEC), resulting in inhibition of archenteron elongation or skeletal spicule formation.

MCF10A cells = assay: EdU incorporation / cell cycle progression screen in MCF10A cells; type: cell-based, human; settings: for IC50: Homo sapiens, MCF-10A, 18 h treatment, rough values from Figure 1 graphs, read-out: IC50 (concentration required for 50% decrease of EdU-positive cells); for Outcome of EdU incorporation screen: 0.025 to 100 μM
Protocol: For cell cycle progression using EdU, MCF10A cells were seeded in 384-well plates at a density of 800 cells per well. […] EdU from kit C10337 (ThermoFischer Scientific, Waltham, MA, United States) was then added to the cells at 10 μM and incubated for 2.5 h. Cells were fixed in 4% paraformaldehyde for 30 min at room temperature. Click-iT reaction was performed for 1 h at room temperature, protected from light, with 5 µM Alexa Fluor 488 azide in (100 mM Tris, 1 mM CuSO4, 50 mM Ascorbic Acid, pH 8.5). Nuclei were counterstained with Hoechst 33,342 (Thermo Fisher Scientific). Imaging and analysis were performed using the ImageXpress Micro XL High-Content Screening System (Molecular Devices LLC, San Jose, CA, United States). IC50 values were determined by sigmoidal curve fitting using GraphPad Prism six software.

B16-F1 cells [7] = assay: Cell viability (MTS) of B16-F1 cells; type: cell-based, mouse; settings: 100 μM, 4 h
Protocol: Cell viability was assessed using the CellTiter 96® AQueous One Solution Cell Proliferation kit (Promega) on a Multiscan Spectrum spectrophotometer (Thermo LifeSciences), with absorbance read at 490 nm.

[8] = Maximum solubility in seawater; type: physicochemical; settings: saline or isotonic, kinetic from dmso stock, visible crystals formed at higher concentrations
Protocol: as §2

[9] = observed up to four-arm mid-pluteus stage
[10] = treated at zygote stage, monitored to four-arm pluteus

## Cc1[nH]c2ccccc2c1CCNC(=O)c1ccccc1F [CK-666, 2-Fluoro-N-[2-(2-methyl-1H-indol-3-yl)ethyl]benzamide]
Fish keratocytes
  Inhibition of migration of fish keratocytes: unable to inhibit the migration of fish keratocytes
Sea urchin embryos [1]
  Effect on PMC migration and spiculogenesis: alters proper migration of PMC and formation of ventrolateral clusters with ensuing inhibition of spiculogenesis
Arp2/3 [2]
  IC50: ~50 µM
Arp2/3 [3]
  IC50: 23 µM
  Arp2/3 inhibition reached at saturation: 78%
B16-F1 cells [4]; 100 µM
  Inhibition of wound healing: inhibits wound healing
B16-F1 cells [5]; 100 μM, 1 h
  Inhibition of lamellipodium formation: blocked lamellipodium formation almost completely
Sea urchin embryos [6]; 100 μM, 22°C
  Developmental phenotype: Defective gastrulation
Sea urchin embryos [6]; [9]
  Effect on archenteron elongation: inhibited elongation of the archenteron at approximately half-size
  Effect on primary mesenchyme cell (PMC) migration: altered PMC migration resulting in the lack of ventrolateral clusters and spicules
Sea urchin embryos [6]; [10]
  Minimum effective concentration, Inhibition of Archenteron elongation: 50 µM
  Minimum effective concentration, Inhibition of Spicule formation: 25 µM
Sea urchin embryos [6]; up to 20–50 μM
  Effect on cleavage and embryo spinning (antimitotic microtubule destabilizing effects): did not affect cleavage and did not induce embryo spinning
MCF10A cells
  IC50: 56.3 µM

## Cc1[nH]c2ccc(F)cc2c1CCNC(=O)c1cc(S(=O)(=O)N(C)C)c(Cl)cc1Cl [Compound 64, 2,4-Dichloro-5-[(dimethylamino)sulfonyl]-N-[2-(5-fluoro-2-methyl-1H-indol-3-yl)ethyl]benzamide]
B16-F1 cells [7]
  Toxicity to B16-F1 cells (viability, MTS): reduced the cell population by half or more
MCF10A cells
  Outcome of EdU incorporation screen: scored positive
  IC50: 6.66 µM

## Cc1[nH]c2ccc(OC(F)(F)F)cc2c1CCNC(=O)c1ccc(S(=O)(=O)N(CCCl)CCCl)cc1 [Compound 52, 4-{[Bis(2-chloroethyl)amino]sulfonyl}-N-{2-[2-methyl-5-(trifluoromethoxy)-1H-indol-3-yl]ethyl}benzamide]
B16-F1 cells [7]
  Toxicity to B16-F1 cells (viability, MTS): reduced the cell population by half or more
MCF10A cells
  Outcome of EdU incorporation screen: scored positive
  IC50: 3.17 µM

## Cc1[nH]c2c(C(F)(F)F)cccc2c1CCNC(=O)c1cc(S(=O)(=O)NC2CC2)c(Cl)cc1Cl [Compound 71, 2,4-Dichloro-5-[(cyclopropylamino)sulfonyl]-N-{2-[2-methyl-7-(trifluoromethyl)-1H-indol-3-yl]ethyl}benzamide]
Arp2/3 [3]
  IC50: 539 µM
  Arp2/3 inhibition reached at saturation: saturation was not reached
[8]
  solubility: 5 to 20 µM (≈ 2.67 to 10.7 µg/mL)
B16-F1 cells [4]; 25 µM
  Cell rounding and detachment in wound healing assay: still induced cell rounding
B16-F1 cells [4]; 100 µM
  Cell rounding and detachment in wound healing assay: induced cell rounding followed by detachment from the substrate
B16-F1 cells [4]; compound at 25 µM
  Inhibition of cell migration (wound healing) compared with 100 µM CK-666: inhibited cell migration even more effectively
B16-F1 cells [5]; dose-dependent assay (Figure 2D)
  Dose-dependent inhibition of lamellipodium formation, potency relative to CK-666: significantly more potent than CK-666
Sea urchin embryos [6]; 5 μM
  Developmental abnormality: suppressed plutei growth
Sea urchin embryos [6]; 20 μM
  Developmental abnormality: defective gastrulation was observed
Sea urchin embryos [6]; [10]
  Minimum effective concentration, Systemic Toxicity: 5 µM
MCF10A cells
  Outcome of EdU incorporation screen: scored positive
  IC50: 3.58 µM

Source: paper PMC9189929, “Synthesis, Screening and Characterization of Novel Potent Arp2/3 Inhibitory Compounds Analogous to CK-666” (Frontiers in Pharmacology, 2022)
